Experimental data as given in paper PMC9767416, “Discovery of small molecule mechanistic target of rapamycin inhibitors as anti-aging and anti-cancer therapeutics” (Frontiers in Aging Neuroscience, 2022).

Legend:
[1] = Shake-flask partition coefficient logP and distribution coefficient logD (pH 7.4); assay type: physicochemical; details: shake-flask
[2] = Solubility by nephelometry (water, buffer pH 7.4); assay type: physicochemical; details: for logSpH 7.4: buffer pH 7.4; for Sol. (buffer 7.4): sodium phosphate buffer pH 7.4, nephelometry; for Sol. (H2O): ultrapure water, nephelometry; for logSH2O: water
[3] = system: mTORC1 substrate p70 S6 kinase (Thr389 phosphorylation); assay: Immunoblot of phospho-p70 S6K (Thr389), mTORC1 activity in cells; assay type: cell-based, human; details: BJ cells; 100 μM; 1 and 5 h
C57BL/6 (B6) male mice [4] = assay: In vivo tolerability study (behaviour, signs of toxicity, body weight); details: p.o. 5, 25 and 50 mg/kg body weight, days 0, 3, 5
Experimental: C57BL/6 (B6) male mice, 8–12 weeks old, were obtained from the Institute of Molecular Genetics, Prague, Czech Republic. Experimental protocols were approved by the Institutional Animal Care Committee of the Institute of Molecular Genetics, Prague.
(§1) Compounds were dissolved in 20 μL DMSO and completed into 200 μL with corn oil.
(§2) During the experiments, mice behavior and possible apparent signs of toxicity were monitored daily. The body weights were determined on days 0, 4, and 8. On day 8, blood (25 μL) was withdrawn using a capillary pipette containing anticoagulant (heparin) from the retroorbital sinus into EDTA-containing tubes. Basic hematological parameters were measured using the Mindray BC-5300 Vet. Mice were then killed, autopsied, and abdominal organs (spleen, liver, and kidney) were removed for visual examination and imaging by a digital camera. Single-cell suspensions from the spleens were prepared by homogenization through a cell strainer (70 μm; BD Biosciences, San Jose, CA, USA). Erythrocytes were osmotically lysed using ammonium chloride-potassium lysis buffer, and the cell suspensions were washed three times in the RPMI-1640 medium and used for further analysis by flow cytometry for selected cell populations.

C57BL/6 (B6) male mice [5] = assay: Blood counts in the tolerability study; assay type: in vivo; details: mice, blood day 8; for Eos / HOT / MPV / Neu / PCT / PDW / RBC / RDW-CV / lvm / PLT / WBC / MCV / RDW-SD / HGB / MCHC / MCH / Mon: AVG; for PLT / WBC: in 10^9/L (unit assumed); for MCV / RDW-SD: in fL (unit assumed); for HGB / MCHC: in g/L (unit assumed); for MCH: in pg (unit assumed); for Mon: unit assumed
Experimental: as §1, §2

C57BL/6 (B6) male mice [6] = assay: Histopathological analysis of spleen, kidney and liver; assay type: in vivo; details: mice, all three doses (5, 25, 50 mg/kg p.o.)
Experimental: Spleen, kidney, and liver tissue samples from the control and treated animals were fixed in 4% formaldehyde and embedded into paraffin. The analysis and evaluation were performed at the Czech Centre for Phenogenomics, Institute of Molecular Genetics of the CAS, Vestec, using Leica ASP6025 automatic vacuum tissue processor for tissue processing, Leica EG1150 H + C embedding station for embedding, and Leica RM2255 rotary microtome for sectioning (2 μm sections). Standard haematoxylin and eosin (HE) descriptive histopathological staining was done using Leica ST5020 + CV5030 stainer and coverslipped.

For `CC(C)n1nc(-c2cc3cc(O)ccc3[nH]2)c2c(N)ncnc21` [Torkinib, torkinib], the logD ([1]; n-octanol/sodium phosphate buffer pH 7.4) was 2.75 ± 0.06, the logP ([1]; n-octanol/water) was 2.65 ± 0.02 and the “logSpH 7.4” value [2] was under −4.71. The “logSpH 7.4” value ([2]; listed as torkinib) was under −4.60, the “Sol. (buffer 7.4)” value [2] was under 6 µg/mL and the “Sol. (buffer 7.4)” value ([2]; listed as torkinib) was “lower than 6 μg/mL”. The “Sol. (H2O)” value [2] was under 6 µg/mL, the “Sol. (H2O)” value ([2]; listed as torkinib) was “lower than 6 μg/mL” and the logSH2O [2] was under −4.71. The logSH2O ([2]; listed as torkinib) was under −4.60, the “effect on Thr389 S6K phosphorylation” value [3] was “inhibitory effect” and the “signs of whole body or organ toxicities” value (C57BL/6 (B6) male mice [4]) was “no apparent signs”. The Eos (C57BL/6 (B6) male mice [5]; 5 mg/kg p.o. days 0, 3, 5) was 0.04, the HOT (C57BL/6 (B6) male mice [5]; 5 mg/kg p.o. days 0, 3, 5) was 0.49 and the MPV (C57BL/6 (B6) male mice [5]; 5 mg/kg p.o. days 0, 3, 5) was 5.33. It also gave a Neu (C57BL/6 (B6) male mice [5]; 5 mg/kg p.o. days 0, 3, 5) of 0.99, a PCT (C57BL/6 (B6) male mice [5]; 5 mg/kg p.o. days 0, 3, 5) of 3.59 and a PDW (C57BL/6 (B6) male mice [5]; 5 mg/kg p.o. days 0, 3, 5) of 14.57. For the same compound, the RBC (C57BL/6 (B6) male mice [5]; 5 mg/kg p.o. days 0, 3, 5) was 9.25 10^12/L, the RDW-CV (C57BL/6 (B6) male mice [5]; 5 mg/kg p.o. days 0, 3, 5) was 0.14 and the lvm (C57BL/6 (B6) male mice [5]; 5 mg/kg p.o. days 0, 3, 5) was 8.67. For the same compound, the PLT (C57BL/6 (B6) male mice [5]; 5 mg/kg p.o. days 0, 3, 5) was 690.67, the WBC (C57BL/6 (B6) male mice [5]; 5 mg/kg p.o. days 0, 3, 5) was 10.43 and the MCV (C57BL/6 (B6) male mice [5]; 5 mg/kg p.o. days 0, 3, 5) was 53.73. It also gave an RDW-SD (C57BL/6 (B6) male mice [5]; 5 mg/kg p.o. days 0, 3, 5) of 31.77, an HGB (C57BL/6 (B6) male mice [5]; 5 mg/kg p.o. days 0, 3, 5) of 146.00 and an MCHC (C57BL/6 (B6) male mice [5]; 5 mg/kg p.o. days 0, 3, 5) of 296.67. For the same compound, the MCH (C57BL/6 (B6) male mice [5]; 5 mg/kg p.o. days 0, 3, 5) was 15.97, the Mon (C57BL/6 (B6) male mice [5]; 5 mg/kg p.o. days 0, 3, 5) was 0.73 10^9/L and the Eos (C57BL/6 (B6) male mice [5]; 25 mg/kg p.o. days 0, 3, 5) was 0.08. For the same compound, the HOT (C57BL/6 (B6) male mice [5]; 25 mg/kg p.o. days 0, 3, 5) was 0.52, the MPV (C57BL/6 (B6) male mice [5]; 25 mg/kg p.o. days 0, 3, 5) was 5.30 and the Neu (C57BL/6 (B6) male mice [5]; 25 mg/kg p.o. days 0, 3, 5) was 0.79. For the same compound, the PCT (C57BL/6 (B6) male mice [5]; 25 mg/kg p.o. days 0, 3, 5) was 3.79, the PDW (C57BL/6 (B6) male mice [5]; 25 mg/kg p.o. days 0, 3, 5) was 14.73 and the RBC (C57BL/6 (B6) male mice [5]; 25 mg/kg p.o. days 0, 3, 5) was 9.96 10^12/L. It also gave an RDW-CV (C57BL/6 (B6) male mice [5]; 25 mg/kg p.o. days 0, 3, 5) of 0.14, a lvm (C57BL/6 (B6) male mice [5]; 25 mg/kg p.o. days 0, 3, 5) of 6.68 and a PLT (C57BL/6 (B6) male mice [5]; 25 mg/kg p.o. days 0, 3, 5) of 712.00. The WBC (C57BL/6 (B6) male mice [5]; 25 mg/kg p.o. days 0, 3, 5) was 8.14, the MCV (C57BL/6 (B6) male mice [5]; 25 mg/kg p.o. days 0, 3, 5) was 51.90 and the RDW-SD (C57BL/6 (B6) male mice [5]; 25 mg/kg p.o. days 0, 3, 5) was 29.23. It also gave an HGB (C57BL/6 (B6) male mice [5]; 25 mg/kg p.o. days 0, 3, 5) of 154.00, an MCHC (C57BL/6 (B6) male mice [5]; 25 mg/kg p.o. days 0, 3, 5) of 298.00 and an MCH (C57BL/6 (B6) male mice [5]; 25 mg/kg p.o. days 0, 3, 5) of 15.50. The Mon (C57BL/6 (B6) male mice [5]; 25 mg/kg p.o. days 0, 3, 5) was 0.59 10^9/L, the Eos (C57BL/6 (B6) male mice [5]; 50 mg/kg p.o. days 0, 3, 5) was 0.04 and the HOT (C57BL/6 (B6) male mice [5]; 50 mg/kg p.o. days 0, 3, 5) was 0.53. It also gave an MPV (C57BL/6 (B6) male mice [5]; 50 mg/kg p.o. days 0, 3, 5) of 5.43, a Neu (C57BL/6 (B6) male mice [5]; 50 mg/kg p.o. days 0, 3, 5) of 1.25 and a PCT (C57BL/6 (B6) male mice [5]; 50 mg/kg p.o. days 0, 3, 5) of 4.73. For the same compound, the PDW (C57BL/6 (B6) male mice [5]; 50 mg/kg p.o. days 0, 3, 5) was 14.67, the RBC (C57BL/6 (B6) male mice [5]; 50 mg/kg p.o. days 0, 3, 5) was 9.95 10^12/L and the RDW-CV (C57BL/6 (B6) male mice [5]; 50 mg/kg p.o. days 0, 3, 5) was 0.14. It also gave a lvm (C57BL/6 (B6) male mice [5]; 50 mg/kg p.o. days 0, 3, 5) of 6.32, a PLT (C57BL/6 (B6) male mice [5]; 50 mg/kg p.o. days 0, 3, 5) of 873.67 and a WBC (C57BL/6 (B6) male mice [5]; 50 mg/kg p.o. days 0, 3, 5) of 8.70. For the same compound, the MCV (C57BL/6 (B6) male mice [5]; 50 mg/kg p.o. days 0, 3, 5) was 53.27, the RDW-SD (C57BL/6 (B6) male mice [5]; 50 mg/kg p.o. days 0, 3, 5) was 31.07 and the HGB (C57BL/6 (B6) male mice [5]; 50 mg/kg p.o. days 0, 3, 5) was 153.67. The MCHC (C57BL/6 (B6) male mice [5]; 50 mg/kg p.o. days 0, 3, 5) was 290.33, the MCH (C57BL/6 (B6) male mice [5]; 50 mg/kg p.o. days 0, 3, 5) was 15.50 and the Mon (C57BL/6 (B6) male mice [5]; 50 mg/kg p.o. days 0, 3, 5) was 1.09 10^9/L. For the same compound, the “blood count analysis, overall finding” value (C57BL/6 (B6) male mice [5]; p.o. 5, 25 and 50 mg/kg) was “no abnormal changes” and the “histopathology, spleen” value (C57BL/6 (B6) male mice [6]) was “minimal to moderate signs of extramedullary haematopoiesis”.
